Test results from US20240148736A1, “COMBINATION DRUG FOR TREATING RENAL CANCER AND POTENTIATOR FOR THERAPEUTIC EFFECTS OF TYROSINE KINASE INHIBITOR” (Saitama Medical University, priority 2020, published 2024).

Key:
ACHN cells = experiment: 3D spheroid proliferation / cell survival rate assay; type: cell-based, human; conditions: SITA alone, dose-response
Procedure: (§1) ACHN and 769-P, which were human RCC cell lines, were acquired from the American Type Culture Collection (ATCC), and those authenticated by short tandem repeat (STR) analysis performed by BEX CO., LTD. were used. The ACHN and 769-P cells were cultured on a DEME medium and a PRMI medium (NACALI TESQUE, INC.), respectively, to both of which 10% of FBS, 100 U/mL of penicillin, and 100 μg/mL of streptomycin were added, using an incubator set at 37° C. and 5% CO2. The ACHN and 769-P cells were exposed to sunitinib (SUN) at 10 μM max., for 6 months or longer, to produce SUN resistant RCC cell lines, ACHN-R and 769-P-R, respectively.
(§2) A cell survival rate of the cells 3 days after the drug treatment and siRNA transfection was evaluated by CellTiter-Glo 3D Assay (Promega K.K.).
(§3) FIG. 4a depicts the results of ACHN-R and the parent cell line thereof. FIG. 4b depicts the results of 769-P-R and the parent cell line thereof. […] In FIGS. 4a to 4b, moreover, “ns” represents “no significant difference.”
(§4) FIGS. 4m to 4n are diagrams depicting the results studying how the DPP4 overexpression affects the cell survival rate of the RCC spheroids treated with SUN. ACHN cells (FIG. 4m) and 769-P cells (FIG. 4n), each stably expressing a control vector (vector #1 or #2) or DPP4 (DPP4 #1 or #2) were treated with SUN, and were analyzed by an ATP-based luciferase assay. […]

769-P cells = experiment: as above; type: cell-based, human; conditions: SITA alone, dose-response
Procedure: as §1, §2, §3, §4

ACHN-R xenograft tumor = experiment: Xenograft tumor model in nude mice; type: in vivo
Procedure: Male nude mice (BALB/c-nu/nu, 6 weeks old) were acquired from CLAIR Japan, Inc. The ACHN cells and the ACHN−R cells were each subjected to trypsinization, followed by washing with PBS. Then, 5×10^6 cells of the ACHN cells or the ACHN−R cells were dispersed in 150 μL of Matrigel (BD Biosciences), and were subcutaneously inoculated in each mouse. The size of the tumor was measured every day. The tumor volume (V) was determined by measuring the length (L) and the width (W), and inserting the measured values in the following equation.
When the volume of the engrafted tumor reached 180 mm^3, SUN (20 mg/kg) was orally administered to the mice inoculated with the ACHN cells, and SUN (20 mg/kg) alone or two drugs, SUN (20 mg/kg) and DPP4 inhibitor sitagliptin (SITA) (30 mg/kg), were orally administered to the randomly selected mice inoculated with the ACHN-R cells. […] The drug was administered in a cycle consisting of 2 consecutive days of administration, followed by 1 day of washout.
At the point when the volume of the ACHN or ACHN−R xenograft nude mouse tumor reached 180 mm^3, oral administration of SUN alone, or a combination of SUN and SITA was started.
The data was presented as the mean SD, and n=6. […] The tumor volume was estimated by measuring the size of the tumor with Vernier calipers. […] In FIGS. 6a and 6b, moreover, “k” represents P<0.05.
Ki67 immunohistochemical staining of the excised tumor of each group was carried out to determine a ratio of Ki67 positive cells (Ki67 index). […] The scale bar is 50 μm. […] In FIG. 6g, moreover, “*” represents P<0.05.
The expression level was evaluated by qRT-PCR. […] In FIGS. 6h to 6l, moreover, “*” represents P<0.05.

IL6 mRNA [1] = experiment: IL6 mRNA level in 3D culture of 769-P-R cells (qRT-PCR); type: cell-based, human; conditions: SITA treatment versus vehicle, 769-P-R cells 3D culture
Procedure: (§5) Extraction of RNA, synthesis of cDNA, and quantitative reverse-transcription polymerase chain reaction (qRT-PCR) were carried out according to the methods disclosed in “[…], et al. ALDH1A1 in patient-derived bladder cancer spheroids activates retinoic acid signaling leading to TUBB3 overexpression and tumor progression. Int. J. Cancer 146, 1099-1113 (2019).” FIGS. 4k to 4l depict the results studying how SITA treatment affects the IL6 mRNA level in the 3D cultures of the ACHN-R cells (FIGS. 4k) and 769-P-R cells (FIG. 4l), which are both SUN resistant cells. […] In FIGS. 4k to 4l, moreover, “*” represents P<0.05.

769-P-R cells = experiment: 3D spheroid proliferation / cell survival rate assay; type: cell-based, human
Procedure: as §1, §2, §3
(§6) FIGS. 4c to 4f are diagrams depicting the results of studying the effect of the combination of SITA and SUN in the 3D culture of the ACHN cells (FIG. 4c), ACHN-R cells (FIG. 4d), 769-P cells (FIG. 4e), or 769-P-R cells (FIG. 4f). The concentration of SITA used was 100 μM. […] In FIGS. 4c, 4d, and 4f, moreover, […] represents P<0.05.
(§7) FIGS. 4g to 4j are diagrams depicting the results studying how the DPP4 knockdown by siRNA affects the therapeutic effects of SUN in the 3D culture of the ACHN cells (FIG. 4g), ACHN−R cells (FIG. 4h), 769-P cells (FIG. 4i), or 769-P-R cells (FIG. 4j). The data was represented as the means value±SD of the relative luciferase activity of each group of the spheroids, and n=3. […] In FIGS. 4h to 4j, moreover, “*” represents P<0.05.

ACHN-R cells = experiment: as above; type: cell-based, human
Procedure: as §1, §2, §3, §6, §7

RCC-B spheroids = experiment: Cell survival rate assay on spheroid culture (CellTiter-Glo 3D); type: cell-based, human; conditions: SITA (100 μM) in combination with SUN, third day
Description: (§8) After attaining the informed consent from the patients at Saitama Medical Center, Saitama Medical University, patient-derived cells (PDC) were produced from the tumors excised from the RCC patients. The tumor samples were processed with reference to the literature (Namekawa, T, et al. ALDH1A1 in patient-derived bladder cancer spheroids activates retinoic acid signaling leading to TUBB3 overexpression and tumor progression. Int. J. Cancer 146, 1099-1113 (2019)). The protocol of the research was approved by the Ethics Committee of Saitama Medical Center, Saitama Medical University (No. 1363-IV).
as §2
(§9) FIGS. 2b to 2c depict the results of treating the RCC-A spheroids and the RCC-B spheroids with SITA (100 μM) and SUN. The data was presented as the mean value ±SD of the relative luciferase activity as analyzed by an ATP-based luciferase assay. […] In FIGS. 2b to 2c, moreover, “*” represents P<0.05.
(§10) The production of the spheroid ATP in the RCC-A cells or RCC-B cells treated with SUN alone or a combination of SUN and SITA on the third day was measured with the luciferase activity using the CEllTiter-Glo. […]

RCC-A spheroids = experiment: as above; type: cell-based, human; conditions: SITA (100 μM) in combination with SUN, third day
Description: as §8, §2, §9, §10

IL6 mRNA [2] = experiment: IL6 mRNA level in 3D culture of ACHN-R cells (qRT-PCR); type: cell-based, human; conditions: SITA treatment versus vehicle, ACHN-R cells 3D culture
Procedure: as §5

[3] = combination of SUN and SITA (100 μM)

SMILES: N[C@@H](CC(=O)N1CCn2c(nnc2C(F)(F)F)C1)Cc1cc(F)c(F)cc1F [SITA, sitagliptin]
- spheroid proliferation (ACHN cells): did not affect the spheroid proliferation
- spheroid proliferation (769-P cells): did not affect the spheroid proliferation
- Ki67 index (ratio of Ki67 positive cells) (ACHN-R xenograft tumor; SITA and SUN in combination, ACHN-R xenograft tumor): reduced the Ki67 index
- sunitinib resistance of the RCC xenograft tumor (ACHN-R xenograft tumor; SITA in combination with SUN): contributed to overturn the sunitinib resistance
- expression of IL6 (mRNA level) in tumor (ACHN-R xenograft tumor; SITA in combination with SUN, ACHN-R xenograft tumor): expression of IL6 decreased
- proliferation of the tumor (tumor volume, tumor weight) (ACHN-R xenograft tumor; SUN (20 mg/kg) and SITA (30 mg/kg) orally in combination, ACHN-R xenograft, 13th day): proliferation of the tumor was suppressed to the similar degree to the ACHN xenograft tumor
- IL6 mRNA level (IL6 mRNA [1]): reduced the expression of mRNA of IL6
- spheroid proliferation (769-P-R cells; SITA alone, dose-response): did not affect the spheroid proliferation
- spheroid proliferation (769-P-R cells; [3]): suppressed the spheroid proliferation
- spheroid proliferation (ACHN-R cells; SITA alone, dose-response): did not affect the spheroid proliferation
- spheroid proliferation (ACHN-R cells; [3]): suppressed the spheroid proliferation
- proliferation inhibition effect owing to SUN (cell survival rate, relative luciferase activity) (RCC-B spheroids): proliferation inhibition effect owing to SUN was enhanced
- proliferation inhibition effect owing to SUN (cell survival rate, relative luciferase activity) (RCC-A spheroids): proliferation inhibition effect owing to SUN was enhanced
- IL6 mRNA level (IL6 mRNA [2]): reduced the expression of mRNA of IL6
